Reference: the NIST ThermoML archive (doi:10.1021/je2013704)
Numbers after ± are expanded uncertainties.

Assay: mn = molality of the nth substance listed, in mol/kg
Details: Liquid, Vibrating tube method

[Cl-].[Cl-].[Mg+2] [magnesium chloride] + O
mass density [kg/m3]
Details	283.15 K	298.12 K	323.07 K	348.04 K	372.99 K	397.97 K	422.94 K	447.94 K	472.96 K
1050 kPa, m1 = 1	1074.73 ± 0.11	1070.86 ± 0.11	1061.56 ± 0.1	1049.32 ± 0.1	1034.76 ± 0.1	1017.83 ± 0.09	999.03 ± 0.09	–	–
1050 kPa, m1 = 5	–	1298.01 ± 0.21	1288.53 ± 0.21	1278.25 ± 0.2	1267.42 ± 0.2	1255.66 ± 0.2	1243.3 ± 0.19	1230.19 ± 0.19	–
1100 kPa, m1 = 3	1200.48 ± 0.17	1194.98 ± 0.16	1185.53 ± 0.16	1174.63 ± 0.16	1162.6 ± 0.15	1149.22 ± 0.15	1134.62 ± 0.14	1118.93 ± 0.14	–
10020 kPa, m1 = 1	1078.32 ± 0.14	1074.43 ± 0.13	1065.03 ± 0.13	1052.8 ± 0.12	1038.36 ± 0.11	1021.72 ± 0.1	1003.28 ± 0.09	982.73 ± 0.11	960.31 ± 0.14
10020 kPa, m1 = 5	–	1300.39 ± 0.35	1290.86 ± 0.34	1280.63 ± 0.33	1269.83 ± 0.32	1258.16 ± 0.31	1245.98 ± 0.3	1232.81 ± 0.29	1219.23 ± 0.29
10100 kPa, m1 = 3	1203.26 ± 0.26	1197.76 ± 0.25	1188.36 ± 0.24	1177.48 ± 0.23	1165.51 ± 0.22	1152.27 ± 0.21	1137.91 ± 0.2	1122.27 ± 0.19	1105.72 ± 0.2
19970 kPa, m1 = 1	1082.31 ± 0.18	1078.17 ± 0.17	1068.73 ± 0.16	1056.56 ± 0.14	1042.33 ± 0.13	1025.91 ± 0.11	1007.77 ± 0.1	987.82 ± 0.11	965.92 ± 0.14
19970 kPa, m1 = 5	–	1302.84 ± 0.5	1293.39 ± 0.48	1283.18 ± 0.47	1272.48 ± 0.45	1260.88 ± 0.44	1248.69 ± 0.42	1235.76 ± 0.41	1222.3 ± 0.4
20100 kPa, m1 = 3	1206.45 ± 0.36	1200.84 ± 0.35	1191.36 ± 0.34	1180.55 ± 0.32	1168.64 ± 0.3	1155.47 ± 0.29	1141.36 ± 0.27	1126 ± 0.25	1109.63 ± 0.24
29900 kPa, m1 = 1	1086.21 ± 0.25	1081.96 ± 0.21	1072.46 ± 0.19	1060.31 ± 0.17	1046.17 ± 0.14	1029.97 ± 0.11	1012.16 ± 0.08	992.59 ± 0.08	971.25 ± 0.13
29900 kPa, m1 = 5	–	1305.37 ± 0.65	1295.97 ± 0.63	1285.71 ± 0.61	1275.12 ± 0.59	1263.46 ± 0.57	1251.46 ± 0.55	1238.61 ± 0.53	1225.27 ± 0.52
30100 kPa, m1 = 3	1209.48 ± 0.47	1203.93 ± 0.46	1194.33 ± 0.44	1183.56 ± 0.42	1171.77 ± 0.39	1158.76 ± 0.37	1144.67 ± 0.34	1129.62 ± 0.32	1113.5 ± 0.3
39830 kPa, m1 = 1	1090.04 ± 0.29	1085.7 ± 0.26	1076 ± 0.23	1063.92 ± 0.2	1049.91 ± 0.17	1033.96 ± 0.14	1016.47 ± 0.1	997.27 ± 0.08	976.5 ± 0.13
39830 kPa, m1 = 5	–	1307.91 ± 0.81	1298.44 ± 0.79	1288.26 ± 0.76	1277.64 ± 0.74	1266.15 ± 0.71	1254.16 ± 0.68	1241.42 ± 0.66	1228.28 ± 0.64
40100 kPa, m1 = 3	1212.45 ± 0.58	1206.91 ± 0.56	1197.32 ± 0.54	1186.6 ± 0.51	1174.82 ± 0.49	1162.02 ± 0.46	1147.96 ± 0.42	1133.07 ± 0.39	1117.27 ± 0.37
49760 kPa, m1 = 1	1093.73 ± 0.33	1089.34 ± 0.32	1079.49 ± 0.29	1067.47 ± 0.25	1053.59 ± 0.22	1037.86 ± 0.17	1020.62 ± 0.13	1001.73 ± 0.1	981.41 ± 0.15
49760 kPa, m1 = 5	–	1310.34 ± 0.97	1300.8 ± 0.94	1290.69 ± 0.91	1280.15 ± 0.88	1268.74 ± 0.85	1256.84 ± 0.82	1244.17 ± 0.79	1231.18 ± 0.76
50100 kPa, m1 = 3	1215.49 ± 0.69	1209.79 ± 0.68	1200.25 ± 0.65	1189.47 ± 0.61	1177.87 ± 0.58	1165.1 ± 0.54	1151.23 ± 0.51	1136.51 ± 0.47	1120.96 ± 0.44
59680 kPa, m1 = 1	1097.42 ± 0.39	1092.83 ± 0.37	1082.98 ± 0.34	1070.97 ± 0.3	1057.17 ± 0.25	1041.6 ± 0.2	1024.61 ± 0.15	1006.15 ± 0.11	986.2 ± 0.14
59680 kPa, m1 = 5	–	1312.81 ± 1.1	1303.27 ± 1.1	1293.17 ± 1.1	1282.6 ± 1	1271.25 ± 0.99	1259.41 ± 0.95	1246.88 ± 0.92	1234.02 ± 0.88
60100 kPa, m1 = 3	1218.46 ± 0.81	1212.66 ± 0.79	1203.13 ± 0.76	1192.42 ± 0.72	1180.77 ± 0.68	1168.09 ± 0.64	1154.39 ± 0.59	1139.92 ± 0.55	1124.6 ± 0.51
68120 kPa, m1 = 1	1100.57 ± 0.44	1095.78 ± 0.42	1085.82 ± 0.38	1073.88 ± 0.34	1060.13 ± 0.29	1044.71 ± 0.23	1027.95 ± 0.17	1009.73 ± 0.12	990.1 ± 0.13
68120 kPa, m1 = 5	–	1314.82 ± 1.3	1305.22 ± 1.2	1295.26 ± 1.2	1284.68 ± 1.2	1273.36 ± 1.1	1261.6 ± 1.1	1249.11 ± 1	1236.38 ± 0.99
68600 kPa, m1 = 3	1220.98 ± 0.91	1215.18 ± 0.89	1205.42 ± 0.85	1194.89 ± 0.81	1183.21 ± 0.77	1170.63 ± 0.72	1157.07 ± 0.67	1142.62 ± 0.62	1127.48 ± 0.57
